How the values were obtained:
[1] = system: Human Bladder Cancer Cell Line (T24); assay: Tumor cell proliferation assay (MTT), T24; assay type: cell-based; details: for inhibition at 10 µM: concentration of 10^−5 mol/L, preliminary screening, 72 hours, read-out: Inhibition rate % T24; for IC50: secondary screening, 48 hours
Text: (§1) The assay used generally is the blue tetrazolium bromide (MTT) method. […] The amount of formazan can be detected by the microplate reader through the absorption value at 570 nm. The amount of formazan product generated is proportional to the number of living cells in the sample, so the OD value may reflect the number of living cells and the ability of a test drug to inhibit or kill cells. The MTT assay may be used in determining the ability of different compounds of the present invention to inhibit one or more cancer cells proliferation. Similar assays can be designed along the same lines for any cancer cell using techniques well known in the art.
(§2) The assay used generally is the blue tetrazolium bromide (MTT) method. […] Intracellular purple formazan salt crystals can be solved in DMSO and the absorption value at 570 nm is detected by the microplate reader, then the number of living cells can be detected indirectly. So MTT assay may be used to determine the ability of a compound of the present invention to inhibit cell proliferation. Similar assays can be designed along the same lines for any cancer cell using techniques well known in the art.
2.2.7 Human Bladder Cancer Cell Line (T24);
The cells of 2.2.6, 2.2.7 cultured in RPMI 1640 medium containing 12% fetal bovine serum in the condition of 37° C., 5% CO2.
(§3) 2.3.1 Cell seeding: Trypsinize the cell by 0.05% trypsin-EDTA and add RPMI 1640 medium (DMEM or 5A) containing 12% calf serum. Count the number, then dilute to 1.67×10^4/ml. Add 180 ul/well to the 96 well plate (3000 cells/well).
(§4) 2.3.2 Culture: cells are incubated for 24 hours at 37° C. under 5% CO2.
(§5) 2.3.3 Preliminary screening: The compounds are firstly diluted to 0.1 mol/L with DMSO, and then diluted to three concentrations of 10^−5 mol/L, 10^−6 mol/L and 10^−7 mol/L. Add 20 ul test compounds to the 96 well plate and incubate for 72 hours. Each group has three parallel wells and all experiments repeat three times. Each inhibition ratio is calculated, then an average value of three times is taken as the measured value. 2.3.4 Staining 2.3.4.1 Attached cell: add 20 ul/well MTT to the 96-well plates; incubate for 4 hours in the incubator. Pour out the culture medium in the well and add 100 ul/well DMSO. Shake the plate for 5 min. 2.3.4.2 Suspension cell: add 20 ul/well MTT to the 96-well plates; incubate for 4 hours in the incubator. Add 50 ul/well 20% SDS and incubate for overnight in the incubator. 2.3.5 Reading the plates: read the absorbance A570-A630 with the Infinite M200 microtiter plate reader. Calculate the inhibition ratio of the test compounds. 2.3.6 Secondary screening: the compounds whose inhibition ratio is greater than 50% at the concentrations of 10^−5 mol/L in the preliminary screening will be picked out for Secondary screening. Dilute these compounds to ten concentrations: 10^−5 mol/L, 0.5×10^−5 mol/L, 10^−6 mol/L, 0.8×10^−6 mol/L, 0.6×10^−6 mol/L, 0.4×10^−6 mol/L, 0.2×10^−6 mol/L, 10^−7 mol/L, 0.8×10^−7 mol/L and 0.4×10^−7 mol/L. Add 20 ul test compound solution to the 96 well plate and incubate for 48 hours. Each group has three parallel wells and all experiments repeat for three times. Read the plates and calculate the inhibition ratio according to the preliminary screening method. 2.3.7 Calculate the Inhibition Ratio of Cell Proliferation and the IC50
(§6) According to the inhibition ratio of cell proliferation at the different concentrations of the compound, inhibition ratio of 50% of the test compound is calculated through the logarithm of the concentration of the compound with the Logit [I] linear regression, and an average value of three times is taken as the measured value of a sample.

[2] = system: Human Colon Cancer Cell Line (HCT 116); assay: Tumor cell proliferation assay (MTT), HCT116; assay type: cell-based; details: concentration of 10^−5 mol/L, preliminary screening, 72 hours, read-out: Inhibition rate % HCT116
Text: as §1, §2
2.2.12 Human Colon Cancer Cell Line (HCT 116);
The cells of 2.2.11, 2.2.12, 2.2.13 were cultured in MC COYS 5-A medium containing 12% fetal bovine serum in the condition of 37° C., 5% CO2.
as §3, §4, §5, §6

| IC50 [1] [µM] | Structure (SMILES) | inhibition at 10 µM [1] [%] | inhibition at 10 µM [2] [%] |
| --- | --- | --- | --- |
|  | Cc1[nH]c2c(c1C(=O)NCCO)CCC/C2=C1/C(=O)Nc2ccccc21 [I-8, N-(2-hydroxyethyl)-2-methyl-7-[1,2-dihydro-2-oxo-3H-indol-(Z)-3-ylidene]-4,5,6,7-tetrahydro-1H-indole-3-carboxamide] | 64.6 | 79.1 |
| 2.64 | Cc1[nH]c2c(c1C(=O)NCC(O)CN1CCCCC1)CCC/C2=C1/C(=O)Nc2ccc(F)cc21 (stereo not shown) [I-74, N-(2-hydroxy-3-(piperidin-1-yl)propyl)-2-methyl-7-[1,2-dihydro-5-fluoro-2-oxo-3H-indol-(Z)-3-ylidene]-4,5,6,7-tetrahydro-1H-indole-3-carboxamide] | 98.7 | 99.9 |
| 3.04 | CCN(CC)CC(O)CNC(=O)c1c(C)[nH]c2c1CCC/C2=C1/C(=O)Nc2ccccc21 (stereo not shown) [I-63, N-(3-(diethylamino)-2-hydroxypropyl)-2-methyl-7-[1,2-dihydro-2-oxo-3H-indol-(Z)-3-ylidene]-4,5,6,7-tetrahydro-1H-indole-3-carboxamide] | 99 |  |
| 3.31 | CCN(CC)CCNC(=O)c1c(C)[nH]c2c1CCC/C2=C1/C(=O)Nc2ccc(F)cc21 [I-2, N-(2-(diethylamino)ethyl)-2-methyl-7-[1,2-dihydro-5-fluoro-2-oxo-3H-indol-(Z)-3-ylidene]-4,5,6,7-tetrahydro-1H-indole-3-carboxamide] | 81.4 | 99.4 |
| 5.9 | Cc1[nH]c2c(c1C(=O)NCC(O)CN1CCCCC1)CCC/C2=C1/C(=O)Nc2ccccc21 (stereo not shown) [I-73, N-(2-hydroxy-3-(piperidin-1-yl)propyl)-2-methyl-7-[1,2-dihydro-2-oxo-3H-indol-(Z)-3-ylidene]-4,5,6,7-tetrahydro-1H-indole-3-carboxamide] | 88.4 | 98.7 |
| 1.83 | CCN(CC)CCNC(=O)c1c(C)[nH]c2c1CCC/C2=C1/C(=O)Nc2ccc(Cl)cc21 [I-3, N-(2-(diethylamino)ethyl)-2-methyl-7-[1,2-dihydro-5-chloro-2-oxo-3H-indol-(Z)-3-ylidene]-4,5,6,7-tetrahydro-1H-indole-3-carboxamide] | 98.1 |  |
|  | Cc1[nH]c2c(c1C(=O)NCCO)CCC/C2=C1/C(=O)Nc2ccc(F)cc21 [I-9, N-(2-hydroxyethyl)-2-methyl-7-[1,2-dihydro-5-fluoro-2-oxo-3H-indol-(Z)-3-ylidene]-4,5,6,7-tetrahydro-1H-indole-3-carboxamide] | 56.1 | 61.9 |
|  | Cc1[nH]c2c(c1C(=O)N1CCN(C)CC1)CCC/C2=C1/C(=O)Nc2ccc(F)cc21 [I-14, 2-methyl-3-(4-methylpiperazine-1-carbonyl)-7-[1,2-dihydro-5-fluoro-2-oxo-3H-indol-(Z)-3-ylidene]-4,5,6,7-tetrahydro-1H-indole] | 34.4 | 22.1 |
| 3.56 | CCN(CC)CCNC(=O)c1c(C)[nH]c2c1CCC/C2=C1/C(=O)Nc2ccccc21 [I-5, N-(2-(diethylamino)ethyl)-2-methyl-7-[1,2-dihydro-2-oxo-3H-indol-(Z)-3-ylidene]-4,5,6,7-tetrahydro-1H-indole-3-carboxamide] | 74.5 | 99.9 |

— US8084621B2, “3-Pyrrolo[b]cyclohexylene-2-dihydroindolinone derivatives and uses thereof” (Jiangsu Simcere Pharmaceutical R&D Co. Ltd., priority 2006, dated 2011)
